In assay [1] the test system is H. pylori cells (SS1). Nature of the assay: pH shock experiment in vivo (urea-dependent survival of H. pylori). Format: cell-based, Helicobacter pylori. The settings on record: for surviving bacteria, pH =1: 100 mM HCl pH 1, 5 mM urea; for surviving bacteria, pH =1 / surviving bacteria, pH =7.2: 30 min; for surviving bacteria, pH =7.2: PBS pH 7.2, 5 mM urea; for inhibition at 50 µM / inhibition at 100 µM / inhibition at 200 µM: Helicobacter pylori, 0.5 h. As for the experimental part:
H. pylori cells (SS1) were harvested, and the concentration was adjusted to Mc = 4 with saline. Then, bacterial samples were mixed with AHA (positive control, 5 mM) or one of the five alkaloids from Rhizoma Coptidis (coptisine, berberine, jatrorrhizine, epiberberine, and palmatine) in 100 mM HCl (pH = 1) or PBS (pH = 7.2) at 37 °C with or without 5 mM urea. After 30 min of incubation, bacteria were collected by centrifugation at 2000g for 10 min and resuspended in the same volume of PBS. A dilution series (1:1–1:10000) was made from the samples, and the dilutions were plated on solid agar for 5 days to form single colony. Samples from urea-free wells were used as controls. Results are expressed as CFU/mL; the experiment was repeated in triplicate. Inhibition rate was calculated using the following equation: Inhibition rate = (Urea group bacterial mean − X group bacterial mean)/Urea group bacterial mean ×100%, where X represents each experimental group.

The target in assay [2] is T1, jack bean urease (JBU) (Canavalia ensiformis, UniProt P07374).
T1 construct: purchased Sigma Aldrich (Steineheim, Germany) type III (catalogue number not given)
T1 sequence (P07374 whole entry, looked up): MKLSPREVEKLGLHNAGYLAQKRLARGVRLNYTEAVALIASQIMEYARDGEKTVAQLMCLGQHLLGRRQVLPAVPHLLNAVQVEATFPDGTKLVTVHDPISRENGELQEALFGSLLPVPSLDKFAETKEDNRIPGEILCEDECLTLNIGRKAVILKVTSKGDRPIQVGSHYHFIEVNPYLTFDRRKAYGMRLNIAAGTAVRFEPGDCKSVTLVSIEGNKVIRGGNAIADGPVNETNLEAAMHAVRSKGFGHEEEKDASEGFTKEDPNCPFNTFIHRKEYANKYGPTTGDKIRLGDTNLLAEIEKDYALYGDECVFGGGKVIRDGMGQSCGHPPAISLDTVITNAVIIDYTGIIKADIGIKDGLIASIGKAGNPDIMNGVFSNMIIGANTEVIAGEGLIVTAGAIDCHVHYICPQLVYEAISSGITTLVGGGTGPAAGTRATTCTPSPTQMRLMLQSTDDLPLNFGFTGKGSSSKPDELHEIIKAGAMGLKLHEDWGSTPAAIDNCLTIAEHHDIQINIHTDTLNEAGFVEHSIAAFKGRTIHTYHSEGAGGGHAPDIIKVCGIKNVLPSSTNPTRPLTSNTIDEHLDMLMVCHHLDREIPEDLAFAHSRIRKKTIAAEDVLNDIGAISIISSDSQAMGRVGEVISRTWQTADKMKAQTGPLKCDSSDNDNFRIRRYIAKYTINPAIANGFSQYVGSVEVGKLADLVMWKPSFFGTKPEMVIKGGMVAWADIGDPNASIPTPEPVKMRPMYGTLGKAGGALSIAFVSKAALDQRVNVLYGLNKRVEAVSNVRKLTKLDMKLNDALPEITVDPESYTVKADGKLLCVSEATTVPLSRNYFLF
Nature of the assay: Urease inhibition assay in vitro (modified Berthelot method). Type of assay: biochemical. The procedure:
This assay was performed using the modified Berthelot method (phenol-hypochlorite) in 96 well plates. At the beginning of each reaction, different concentrations of urease solution and 150 mM urea as a substrate were mixed in 20 mM HEPES buffer (pH 7.5) at 37 °C. After a 20-min reaction, urease activity was tested by measuring the concentration of ammonia produced by the reaction at 595 nm using the microplate reader (Thermo Fisher Multiskan FC, Instruments, Inc., USA) at ambient temperature. […] One unit (U) of urease activity was defined as the amount of urease required to catalyse 1 μmol urea per min. These experiments were repeated in triplicate.
Coptisine’s ability to inhibit urease activity was determined by measuring amounts of ammonia produced using the modified Berthelot method described above. The assay mixture, which contained 200 μL of enzyme and 200 μL of coptisine solution (0.16–2.51 mM) in 200 μL of 20 mM HEPES buffer (pH 7.5), was incubated for 20 min at 37 °C in 96-well plates. The reaction was then initiated by adding urea solution (150 mM) to determine residual urease activity. AHA was used as a standard urease inhibitor. […] Residual activity (RA %) for each assay was calculated using the following equation: RA % = (activity with inhibitors/activity without inhibitors) × 100%. […]

Assay [3] addresses T2, UreG dimer (Helicobacter pylori, UniProt Q09066).
T2 construct: HisSUMO (N, cleaved yes); made in house; host or cells: Escherichia coli
In words: UreG dimer formation inhibition assay (size exclusion chromatography). Format: biochemical. The conditions noted are these: 500 μM coptisine, 300 μM GTP, 5 μM UreG monomer, 2.5 μM NiSO4, 60 min. The procedure: Size exclusion chromatography technology was used to analyse the effects of coptisine on UreG dimer formation. Experiment was carried out in the buffer containing 5 μM UreG monomer and 2.5 μM NiSO4, and divided into the following three groups: 300 μM GTP (positive control), buffer A (negative control), and 300 μM GTP +500 μM coptisine. After reaction for 60 min, samples were then injected into a Superdex 75 analytical gel filtration column pre-equilibrated with buffer A.
Background: In gel filtration, larger molecules generally elute earlier.

The target in assay [4] is T3, UreG dimers (Helicobacter pylori, UniProt Q09066).
T3 construct: HisSUMO (N, cleaved yes); made in house; host or cells: Escherichia coli
T3 sequence (Q09066 whole entry): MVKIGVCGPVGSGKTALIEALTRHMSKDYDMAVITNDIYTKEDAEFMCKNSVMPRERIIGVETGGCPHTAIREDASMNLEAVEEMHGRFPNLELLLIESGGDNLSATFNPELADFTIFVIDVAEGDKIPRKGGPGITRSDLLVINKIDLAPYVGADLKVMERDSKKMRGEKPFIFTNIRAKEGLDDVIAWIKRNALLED
In words: Nickel uptake assay (dialysis, atomic absorption spectroscopy). The settings on record: 25, 50 and 100 μM coptisine, 2.5 μM UreG dimer, versus control, all p < 0.01. Format: biochemical. As for the experimental part: UreG dimers were obtained using GTPγS as described previously. Briefly, the UreG dimer was purified by incubating apo-UreG at 3 mg/mL on ice with 1 mM GTP, 2 mM MgSO4, and 0.5 mM NiSO4 for 15 min. Nickel-charged UreG dimers were then separated from excess GTP and nickel using a Sephadex G25 desalting column. UreG dimers (2.5 μM) were injected into dialysis bag (6–8 kDa) and mixed with different concentrations of coptisine (25, 50, or 100 μM) or DMSO (control). The dialysis bag was sealed and placed in beakers containing UreG dimer buffer at 37 °C in a water bath. After 30 min, dialysis bags were placed in fresh buffer and the sample was incubated for 2 h at 4 °C with continuous shaking to initiate dialysis. The dialysis process was repeated three times. Samples were then removed and nickel concentrations were measured using atomic absorption spectroscopy (AA-7000, SHIMADZU). Nickel concentration was determined by comparing measurements against a standard curve of known nickel concentrations.

Where [5] appears, read: pH 1, read-out: Inhibition rate, pH =1.
Where [6] appears, read: pH 7.2, read-out: Inhibition rate, pH =7.2.

Like-named read-outs stand apart in the source and are kept apart here.

T2 sequence (Q09066 whole entry): as above

On to `c1c2c(cc3c1OCO3)-c1cc3ccc4c(c3c[n+]1CC2)OCO4` [Coptisine], for which the “surviving bacteria, pH =1” value was determined as 129 ± 31 CFU/mL in assay [1] (50 μM compound), 25 ± 6 CFU/mL in assay [1] (100 μM compound) and 7 ± 3 CFU/mL in assay [1] (200 μM compound). For the same molecule, the “surviving bacteria, pH =7.2” value is reported as 1.0 ± 0.2 ×10^4 CFU/mL in assay [1] (50 μM compound), 1.3 ± 0.3 ×10^4 CFU/mL in assay [1] (100 μM compound) and 1.2 ± 0.3 ×10^4 CFU/mL in assay [1] (200 μM compound). Besides, the inhibition at 50 µM amounted to 72.7% in assay [1] (setting [5]) and 0% in assay [1] (setting [6]). The inhibition at 100 µM in assay [1] (setting [5]) came out at 94.7%; in assay [1] (setting [6]), 0%. The inhibition at 200 µM worked out at 98.5% in assay [1] (setting [5]) and 0% in assay [1] (setting [6]). For the same molecule, it took 260 ± 20 µM to reach half-maximal inhibition in assay [2] (IC50). In addition, the UreG dimerisation result in assay [3] is reported as “obviously inhibited”. The “bound nickel concentrations of UreG dimers” value in assay [4] is “markedly decreased”.

A word on the inhibition: it is the percentage by which the read-out fell short of the control. The term IC50 denotes the concentration at which inhibition is half-maximal. Lower therefore signals higher potency.

(Values after paper PMC6136390, “Coptisine-induced inhibition of Helicobacter pylori: elucidation of specific mechanisms by probing urease active site and its maturation process” (Journal of Enzyme Inhibition and Medicinal Chemistry, 2018).)
